From the C3SDB collision cross section collection
Where “and” joins values, the source holds several entries; their conditions need not be identical. Equal entries are not always repeated.

Conditions: instrument: DT, stepped-field

Compound	collision cross section (N2) ([M+H]+)	collision cross section (N2) ([M+Na]+) [Å²]	also measured
CC(C)C[C@H](NC(=O)[C@H](Cc1c[nH]cn1)NC(=O)[C@@H](N)CC(=O)O)C(=O)N[C@H](C(=O)NCC(=O)N[C@@H](CCCNC(=N)N)C(=O)O)C(C)C [DHLVGR]	249.4 Å²	–	–
CCC(C)[C@H](NC(=O)[C@@H](N)CC(=O)O)C(=O)N[C@H](C(=O)NCC(=O)N[C@@H](C)C(=O)N[C@H](C(=O)N[C@@H](CC(C)C)C(=O)N[C@@H](CCCCN)C(=O)O)C(C)C)C(C)C (some centres undefined) [DIVGAVLK]	291.8 Å² and 277.8 Å²	–	–
N=C(N)NCCC[C@H](NC(=O)[C@H](CCC(=O)O)NC(=O)CNC(=O)[C@@H](N)Cc1ccccc1)C(=O)O [FGER]	217.1 Å²	–	–
CCC(C)[C@H](NC(=O)[C@H](CCC(N)=O)NC(=O)CN)C(=O)N[C@H](C(=O)NCC(=O)N[C@@H](CCCNC(=N)N)C(=O)O)C(C)C (some centres undefined) [GQIVGR]	245.5 Å²	–	–
CCC(C)[C@H](NC(=O)[C@@H](NC(=O)CN)C(C)C)C(=O)N[C@@H](Cc1ccccc1)C(=O)N[C@@H](Cc1ccc(O)cc1)C(=O)N[C@@H](CCC(=O)O)C(=O)N[C@@H](CO)C(=O)N[C@@H](Cc1c[nH]cn1)C(=O)NCC(=O)N[C@@H](CCCCN)C(=O)O (some centres undefined) [GVIFYESHGK]	332.9 Å²	–	–
CC(C)C[C@H](NC(=O)[C@@H](NC(=O)CN)C(C)C)C(=O)N[C@@H](Cc1c[nH]cn1)C(=O)N[C@@H](C)C(=O)N[C@H](C(=O)N[C@@H](CCCCN)C(=O)O)C(C)C [GVLHAVK]	269.9 Å²	–	–
OC[C@H]1O[C@@H]2O[C@H]3[C@H](O)[C@@H](O)[C@@H](O[C@H]4[C@H](O)[C@@H](O)[C@@H](O[C@H]5[C@H](O)[C@@H](O)[C@@H](O[C@H]6[C@H](O)[C@@H](O)[C@@H](O[C@H]7[C@H](O)[C@@H](O)[C@@H](O[C@H]8[C@H](O)[C@@H](O)[C@@H](O[C@H]9[C@H](O)[C@@H](O)[C@@H](O[C@H]1[C@H](O)[C@H]2O)O[C@@H]9CO)O[C@@H]8CO)O[C@@H]7CO)O[C@@H]6CO)O[C@@H]5CO)O[C@@H]4CO)O[C@@H]3CO [Gamma-Cyclodextrin]	322.6 Å²	322.1	collision cross section (N2) ([M+Cs]+): 338.2 Å²; collision cross section (N2) ([M+K]+): 324.8 Å²; collision cross section (N2) ([M+Li]+): 317.7 Å²; collision cross section (N2) ([M+Rb]+): 327.3 Å²
CCCCCCCCCCCCC=CC[C@@H](O)[C@H](CO[C@@H]1O[C@H](CO)[C@@H](O)C(O)C1O)NC(=O)CCCCCCCCCCCCCCC (some centres undefined) [GlcCer(34:1)]	–	277.3	–
CCCCCCCCCCCCC=CC[C@@H](O)[C@H](CO[C@@H]1O[C@H](CO)[C@@H](O)C(O)C1O)NC(=O)CC=CCCCCCCCCCCCCCCCC (some centres undefined) [GlcCer(38:2)]	–	291.4	–
CCCCCCCCCCCCCCCCCCCCCC(=O)N[C@@H](CO[C@@H]1O[C@H](CO)[C@@H](O)C(O)C1O)[C@H](O)CCCCCCCCCCCCCCC (some centres undefined) [GlcCer(40:0)]	–	302.3	–
CCCCCCCCCCCCC=CC[C@@H](O)[C@H](CO[C@@H]1O[C@H](CO)[C@@H](O)C(O)C1O)NC(=O)CC=CCCCCCCCCCCCCCCCCCCC (some centres undefined) [GlcCer(41:2)]	–	299.6	–
CCCCCCCCCCCCC=CC[C@@H](O)[C@H](CO[C@@H]1O[C@H](CO)[C@@H](O)C(O)C1O)NC(=O)CC=CCC=CCCCCCCCCCCCCCCCCC (some centres undefined) [GlcCer(42:3)]	–	302.3	–
CCCCCCCCCCCCC=CC[C@@H](O)[C@H](CO[C@@H]1O[C@H](CO)[C@@H](O)C(O)C1O)NC(=O)CC=CCC=CCCCCCCCCCCCCCCCCCC (some centres undefined) [GlcCer(43:3)]	–	306.1	–
CC(=O)NC1C(OC2C(O)C(CO)OC(OC(C(O)CO)C(O)C(O)C=O)C2O)OC(CO)C(O)C1O (centres undefined) [HexNAc-(Hex)2]	–	220	collision cross section (N2) ([M+Na-H2O]+): 216.3 Å²
CC(=O)NC1C(O)OC(CO)C(O)C1OC1OC(CO)C(O)C(O)C1O (centres undefined) [HexNAc-Hex]	–	190.2	collision cross section (N2) ([M+K]+): 191.1 Å²; collision cross section (N2) ([M+Na-H2O]+): 184.3 Å²
OC[C@H]1O[C@H](O[C@H]2[C@H](O)[C@@H](O)[C@@H](O[C@H]3[C@H](O)[C@@H](O)[C@@H](O[C@H]4[C@H](O)[C@@H](O)[C@@H](O[C@H]5[C@H](O)[C@@H](O)[C@@H](O[C@H]6[C@H](O)[C@@H](O)[C@@H](O[C@H]7[C@H](O)[C@@H](O)[C@@H](O)O[C@@H]7CO)O[C@@H]6CO)O[C@@H]5CO)O[C@@H]4CO)O[C@@H]3CO)O[C@@H]2CO)[C@H](O)[C@@H](O)[C@@H]1O [Maltoheptaose]	303.3 Å²	303.1	collision cross section (N2) ([M+K]+): 303.4 Å²
OC[C@H]1O[C@H](O[C@H]2[C@H](O)[C@@H](O)[C@@H](O[C@H]3[C@H](O)[C@@H](O)[C@@H](O[C@H]4[C@H](O)[C@@H](O)C(O)O[C@@H]4CO)O[C@@H]3CO)O[C@@H]2CO)[C@H](O)[C@@H](O)[C@@H]1O (some centres undefined) [Maltotetraose]	238.3 Å²	235.3	–
OC[C@H]1O[C@H](O[C@H]2[C@H](O)[C@@H](O)[C@@H](O[C@H]3[C@H](O)[C@@H](O)[C@@H](O)O[C@@H]3CO)O[C@@H]2CO)[C@H](O)[C@@H](O)[C@@H]1O [Maltotriose]	216.3 Å²	212.8	collision cross section (N2) ([M+K]+): 216.8 Å²
CC/C=C\C/C=C\C/C=C\C/C=C\C/C=C\CCCC(=O)O[C@H](COC(=O)CCCC/C=C\C/C=C\C/C=C\C/C=C\CC)COP(=O)([O-])OCC[N+](C)(C)C [PC(38:9)]	–	297.8	–

Compound	collision cross section (N2) ([M+H]+)	collision cross section (N2) ([M+Na]+) [Å²]	also measured
CCC=CCC=CCC=CCC=CCC=CCC=CCC(=O)OC[C@H](COP(=O)(O)OCC[N+](C)(C)C)OC(=O)CC=CCC=CCC=CCC=CCC=CCC=CCC [PC(42:12)]	–	303.9	–
CCCCC=CCC=CCC=CCC(=O)OC[C@H](COP(=O)(O)OCCN)OC(=O)CC=CCC=CCC=CCCCC [PE(28:6)]	–	–	collision cross section (N2) ([M+K]+): 248.7 Å²
CCCC/C=C\CCCCCCCC(=O)OC[C@H](COP(=O)(O)OCCN)OC(=O)CCCCCC/C=C\C/C=C\C/C=C\CCCCC [PE(34:4)]	–	273.6	–
CCCCC/C=C\C/C=C\C/C=C\CCCCC(=O)OC[C@H](COP(=O)(O)OCCN)OC(=O)CCCCCCC/C=C\CCCCCCCCC [PE(37:4)]	–	–	collision cross section (N2) ([M+K]+): 284.7 Å²
CCCCC/C=C\C/C=C\C/C=C\C/C=C\CCCC(=O)O[C@H](COC(=O)CCCC/C=C\C/C=C\C/C=C\CCCCC)COP(=O)(O)OCCN [PE(38:7)]	–	283.7	collision cross section (N2) ([M+K]+): 287 Å²
CCCCC/C=C\C/C=C\CCCCCCCC(=O)O[C@H](COCCCCCCCCCCCCCCCCCC)COP(=O)(O)OCCN [PE(o36:2)]	–	287.3	–
CC/C=C\C/C=C\C/C=C\C/C=C\CCCCC(=O)OC[C@H](COP(=O)(O)OC[C@H](N)C(=O)O)OC(=O)CCCCC/C=C\C/C=C\C/C=C\C/C=C\CCCCC [PS(40:8)]	–	293.6	–
CCCCC/C=C\C/C=C\C/C=C\C/C=C\CCCCCC(=O)OC[C@H](COP(=O)(O)OC[C@H](N)C(=O)O)OC(=O)CCC/C=C\C/C=C\C/C=C\C/C=C\CCCCC [PS(42:8)]	–	301.3	–
CC/C=C\C/C=C\C/C=C\C/C=C\C/C=C\C/C=C\CCC(=O)O[C@H](COC(=O)CCC/C=C\C/C=C\C/C=C\C/C=C\CCCCC)COP(=O)(O)OC[C@H](N)C(=O)O [PS(42:10)]	–	297.1	–
CC/C=C\C/C=C\C/C=C\C/C=C\C/C=C\C/C=C\CCC(=O)OC[C@H](COP(=O)(O)OC[C@H](N)C(=O)O)OC(=O)CCC/C=C\C/C=C\C/C=C\C/C=C\C/C=C\CC [PS(42:11)]	–	294.2	–
CC=CCC=CCC=CCC=CCC=CCC=CCC=CCC=CCC(=O)OC[C@H](COP(=O)(O)OC[C@H](N)C(=O)O)OC(=O)CC=CCC=CCC=CCC=CCC=CCC=CCC=CCC=CC [PS(52:16)]	–	322.2	–
NCCCC[C@H](NC(=O)[C@H](CC(N)=O)NC(=O)[C@H](CCC(=O)O)NC(=O)[C@@H](N)CCC(N)=O)C(=O)O [QENK]	219 Å²	–	–
N=C(N)NCCC[C@H](NC(=O)CNC(=O)[C@H](CC(=O)O)NC(=O)[C@@H](N)CO)C(=O)NCC(=O)O [SDGRG]	204.6 Å²	203.5	collision cross section (N2) ([M+K]+): 205.4 Å²
CCCCCCCCCCCCCCCCCCCCCC(=O)N[C@@H](COP(=O)([O-])OCC[N+](C)(C)C)[C@H](O)CCCCCCCCCCCCCCC [SM(40:0)]	–	305.7	–
CCCCCCCCCCCCC=CC[C@@H](O)[C@H](COP(=O)([O-])OCC[N+](C)(C)C)NC(=O)CC=CCCCCCCCCCCCCCCCCCCC [SM(41:2)]	–	303.9	–
CCCCCCCCCCCCC=CC[C@@H](O)[C@H](COP(=O)([O-])OCC[N+](C)(C)C)NC(=O)CC=CCCCCCCCCCCCCCCCCCCCCC [SM(43:2)]	–	311.5	–
CCCCCCCCCCCCC=CC[C@@H](O)[C@H](COP(=O)([O-])OCC[N+](C)(C)C)NC(=O)CC=CCC=CCCCCCCCCCCCCCCCCCC [SM(43:3)]	–	309.6	–
OC[C@@H](O)[C@@H](O)[C@H](O)[C@@H](O)CO [Sorbitol]	–	139.4	–
CCCC[N+](CCCC)(CCCC)CCCC [TAA4]	–	–	collision cross section (N2) ([M]+): 166.6 Å²
